Measured values from patent US9675605B2, “Substituted naphthyridine and quinoline compounds as MAO inhibitors” (DART NEUROSCIENCE (CAYMAN) LTD., priority 2013, dated 2017).

Legend:
[1] = biological target: Human recombinant MAO-A (Homo sapiens (Human), UniProt P21397); assay: MAO enzymatic assay, MAO-B selectivity (MAO-A/MAO-B); type: biochemical; conditions: selectivity for MAO-B over MAO-A; values given as ranges
Experimental: (§1) The MAO enzymatic assay was performed according to the fluorometric method described by Matsumoto and colleagues (Matsumoto et al., Clin. Biochem. 1985, 18, 126-129) with the following modifications. Human recombinant MAO-A and MAO-B expressed in insect cells were used. For both assays, test compound and/or vehicle were preincubated with purified enzyme in phosphate buffer pH 7.4 for 15 minutes at 37° C. The reaction was initiated by addition of […] kynuramine. Following a 60 minute incubation period, the reaction was terminated by the addition of 6 N NaOH. The amount of 4-hydroxyquinoline that formed was determined by spectrofluorimetrically at 325 nm/465 nm.
(§2) Results were converted to percent inhibition, and the EC50 (M) for each reaction was determined using the XLfit program from IDBS (ID Business Solutions Ltd., 2 Occam Court, Surrey Research Park, Guildford, Surrey, GU2 7QB UK). The EC50 represents the concentration of a compound where 50% of its maximal effect is observed. The pEC50 is defined as the negative logarithm of the EC50; a higher pEC50 value therefore corresponds to higher potency in the assay.

[2] = biological target: Human recombinant MAO-B (Homo sapiens (Human), UniProt P27338); assay: MAO-B enzymatic assay (fluorometric, kynuramine); type: biochemical; conditions: human recombinant MAO-B expressed in insect cells, 50 μm kynuramine, pH 7.4, 37° C.; values given as ranges; read-out: MAO-B (pEC50) (converted)
Human recombinant MAO-B, sequence (P27338 whole entry): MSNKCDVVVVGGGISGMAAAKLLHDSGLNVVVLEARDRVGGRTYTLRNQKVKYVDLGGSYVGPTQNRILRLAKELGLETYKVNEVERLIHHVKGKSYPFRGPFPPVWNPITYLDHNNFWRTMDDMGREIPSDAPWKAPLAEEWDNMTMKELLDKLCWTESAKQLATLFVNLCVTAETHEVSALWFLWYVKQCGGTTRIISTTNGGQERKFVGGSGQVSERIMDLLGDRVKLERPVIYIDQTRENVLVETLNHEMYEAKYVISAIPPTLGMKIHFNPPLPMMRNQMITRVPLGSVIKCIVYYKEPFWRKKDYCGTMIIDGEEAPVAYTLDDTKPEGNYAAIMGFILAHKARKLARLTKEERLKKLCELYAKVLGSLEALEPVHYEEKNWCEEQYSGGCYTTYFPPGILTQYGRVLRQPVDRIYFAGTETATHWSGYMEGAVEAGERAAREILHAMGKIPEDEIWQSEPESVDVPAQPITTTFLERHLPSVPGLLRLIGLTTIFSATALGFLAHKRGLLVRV
Experimental: as §1, §2
Representative compounds of the invention were evaluated in the MAO-B enzymatic assay. Typically, the compounds of the invention show MAO-B inhibitory properties at a concentration of 0.1 to 10 μM, typically at 5-100%.

Human recombinant MAO-A, sequence (P21397 whole entry): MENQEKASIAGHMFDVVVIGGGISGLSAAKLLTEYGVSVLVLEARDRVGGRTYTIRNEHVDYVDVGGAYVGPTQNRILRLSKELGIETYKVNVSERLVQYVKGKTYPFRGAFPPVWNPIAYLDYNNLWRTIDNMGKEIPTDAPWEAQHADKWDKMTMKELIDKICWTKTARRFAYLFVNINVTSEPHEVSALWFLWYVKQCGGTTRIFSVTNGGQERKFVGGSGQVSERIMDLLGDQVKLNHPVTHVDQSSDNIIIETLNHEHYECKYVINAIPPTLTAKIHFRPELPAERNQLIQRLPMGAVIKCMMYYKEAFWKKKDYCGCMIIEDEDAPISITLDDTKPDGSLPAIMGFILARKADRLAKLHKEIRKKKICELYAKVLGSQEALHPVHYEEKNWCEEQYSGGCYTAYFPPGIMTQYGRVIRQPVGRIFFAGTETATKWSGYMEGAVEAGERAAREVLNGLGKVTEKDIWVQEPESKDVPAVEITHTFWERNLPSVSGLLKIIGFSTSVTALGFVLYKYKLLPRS

Structure (SMILES) | MAO-A/MAO-B [1] | EC50 [2] [nM]
CCOC(=O)c1cnc2cc(OCc3cc(F)cc(C(F)(F)F)c3)ccc2c1 [Example 13, Ethyl 7-((3-fluoro-5-(trifluoromethyl)benzyl)oxy)quinoline-3-carboxylate] | >100-200 | –
CCOC(=O)c1cnc2cc(OCc3ccc(F)c(Cl)c3)ccc2c1 [Example 17, Ethyl 7-((3-chloro-4-fluorobenzyl)oxy)quinoline-3-carboxylate] | >100-200 | –
CCOC(=O)c1cnc2cc(OCc3ccc([N+](=O)[O-])cc3)ccc2c1 [Example 11, Ethyl 7-((4-nitrobenzyl)oxy)quinoline-3-carboxylate] | 1-10 | –
CCOC(=O)c1cnc2cc(OCc3ccc(F)cc3)ccc2c1 [Example 2, Ethyl 7-[(4-fluorophenyl)methoxy]quinoline-3-carboxylate] | >100-200 | –
CCOC(=O)c1cnc2cc(OCc3ccc(F)c(F)c3)ccc2c1 [Example 14, Ethyl 7-((3,4-difluorobenzyl)oxy)quinoline-3-carboxylate] | >200 | –
CCOC(=O)c1cnc2cc(OCc3cccc(F)c3)ccc2c1 [Example 4, Ethyl 7[(3-fluorophenyl)methoxy]quinoline-3-carboxylate] | 1-10 | –
CCOC(=O)c1cnc2cc(OCc3cccc(Cl)c3)ccc2c1 [Example 3, Ethyl 7-[(3-chlorophenyl)methoxy]quinoline-3-carboxylate] | >10-100 | –
CCOC(=O)c1cnc2cc(OCc3cccc([N+](=O)[O-])c3)ccc2c1 [Example 18, Ethyl 7-((3-nitrobenzyl)oxy)quinoline-3-carboxylate] | >10-100 | –
CCOC(=O)c1cnc2cc(OCc3cccc(C(F)(F)F)c3)ccc2c1 [Example 5, Ethyl 7-((3-(trifluoromethyl)benzyl)oxy)quinoline-3-carboxylate] | >100-200 | –
CCOC(=O)c1cnc2cc(OCc3cc(F)c(F)c(F)c3)ccc2c1 [Example 16, Ethyl 7-((3,4,5-trifluorobenzyl)oxy)quinoline-3-carboxylate] | >200 | –
CCOC(=O)c1cnc2cc(OCc3cccc(OC)c3)ccc2c1 [Example 9, Ethyl 7-((3-methoxybenzyl)oxy)quinoline-3-carboxylate] | >100-200 | –
CCOC(=O)c1cnc2cc(OCc3ccc(C(F)(F)F)cc3)ccc2c1 [Example 6, Ethyl 7-((4-(trifluoromethyl)benzyl)oxy)quinoline-3-carboxylate] | >10-100 | –
CCOC(=O)c1cnc2cc(OCc3ccc(F)c(C(F)(F)F)c3)ccc2c1 [Example 12, Ethyl 7-((4-fluoro-3-(trifluoromethyl)benzyl)oxy)quinoline-3-carboxylate] | >200 | –
CCOC(=O)c1cnc2cc(OCc3ccc(C)cc3)ccc2c1 [Example 8, Ethyl 7-((4-methylbenzyl)oxy)quinoline-3-carboxylate] | >10-100 | –
CCOC(=O)Cc1cnc2cc(OCc3cccc(Cl)c3)ccc2c1 [Example 51, Ethyl 2-(7-((3-chlorobenzyl)oxy)quinolin-3-yl)acetate] | – | 100 to 1000
CCOC(=O)c1cnc2cc(OCc3ccc(OC)cc3)ccc2c1 [Example 10, Ethyl 7-((4-methoxybenzyl)oxy)quinoline-3-carboxylate] | >10-100 | –
CCOC(=O)c1cnc2cc(OCc3cccc(C)c3)ccc2c1 [Example 7, Ethyl 7-((3-methylbenzyl)oxy)quinoline-3-carboxylate] | >100-200 | –
CC(C)(O)c1cnc2cc(OCc3ccc(F)cc3)ccc2c1 [Example 27, 2-(7-((4-Fluorobenzyl)oxy)quinolin-3-yl)propan-2-ol] | >200 | –
CCOC(=O)c1cnc2cc(OCCc3cccc(F)c3)ccc2c1 [Example 24, Ethyl 7-(3-fluorophenethoxy)quinoline-3-carboxylate] | >10-100 | –
CCOC(=O)c1cnc2cc(OCc3ccc(Cl)cc3)ccc2c1 [Example 1, Ethyl 7-[(4-chlorophenyl)methoxy]quinoline-3-carboxylate] | >10-100 | –
CCOC(=O)c1cnc2cc(OCc3cc(F)cc(F)c3)ccc2c1 [Example 15, Ethyl 7-((3,5-difluorobenzyl)oxy)quinoline-3-carboxylate] | >200 | –
CCOC(=O)c1cnc2cc(OCCc3cccc(Cl)c3)ccc2c1 [Example 25, Ethyl 7-(3-chlorophenethoxy)quinoline-3-carboxylate] | >10-100 | –
